Residues, ends and D or L forms follow the SMILES beside them. *: point of attachment. Cbz = O=C(OCc1ccccc1)*
Assays:
[1] = system: MDA-MB-231 cells; test: MDA-MB-231 cell aggregation in suspension on Poly-HEMA-coated plates; type: cell-based, human; details: 4-MU 0.4 mM/L pre-treatment for 48 h; aggregation at 1 h
Description: Hyaluronan inhibition. Two complementary approaches were utilized to inhibit hyaluronan, the known CD44 ligand, in the two models. First, for the TN PDX model, dissociated cells were treated with hyaluronan antagonist (o-HA, HA oligomers) at 100 μg/mL during the 72-hour aggregation assays. For MDA-MB-231 cells, the hyaluronic acid synthase inhibitor 4-methylumbelliferone (4-MU, 0.4 mM/L) was added to the adherent culture. After 48 h of treatment, the cells were trypsinized and transferred to a poly-hydroxyethyl methacrylate (Poly-HEMA, Sigma-Aldrich) coated plate, and the images were taken at the indicated times by Leica microscopy.
Cell clustering assay. Freshly dissociated primary tumor cells in single cell suspension were seeded in collagen type I-coated 96-well plates. The plates were put into the IncuCyte live cell imaging system (Essen BioScience), and live images were taken every 2-4 h for up to one week. The cluster number and size were analyzed by Incucyte ZOOM software (Essen BioScience). In specific experiments, primary tumor cells might be sorted based on the expression of CD44 prior to seeding. In other experiments, seeded tumor cells might be transfected with siRNAs (100 nM) or treated with various inhibitors during the clustering assays. […]

[2] = system: phospho-EGFR (Y845); test: immunoblot of phospho-EGFR (Y845) in siCD44-transfected MDA-MB-231 cells; type: cell-based, human; details: siCD44 MDA-MB-231 cells in suspension, inhibitor for 6 hours
Description: FIG. 23. CD44 promotes EGFR stability and activity in clusters. A. Immunoblots of phospho-EGFR (Y845), EGFR and actin of TN1-PDX tumor cells in clustering assays upon CD44 knockdown for 36 hours. B. Real-time PCR showing no significant (NS) effect of siCD44 on EGFR mRNA levels. Immunoblots of phospho-EGFR (Y845) and total EGFR of MDA-MB-231 cells in suspension for 48 hours after transfected with scramble control (con), siCD44, or siEGFR. D. Immunoblots of phospho-EGFR (Y845) in MDA-MB-231 cells, transfected with siCD44, either adherent (adh) or in suspension in the presence of proteasome inhibitor (MG-132) or endocytosis inhibitor (sucrose) for 6 hours. E. Immunoprecipitation of CD44-FLAG and detection of EGFR by immunoblot.
Western blot. Cells were lysed by RIPA buffer supplemented with Amresco protease inhibitor cocktail (1:100 diluted) and centrifuged for 10 mins at 4 degrees and 10,000 RPM. Protein concentration was measured and 20 ug of protein was loaded for each sample. Antibodies used: EGFR, p-EGFR, b-actin (abcam).

[3] = system: MDA-MB-231 cells; test: orthotopic breast tumor model: primary tumor, spontaneous lung metastasis and blood CTC clusters; type: in vivo, mice
Source text: FIG. 21. Inhibition of EGFR blocks spontaneous metastasis. A. Timeline of treatment after palpable tumor formation in PDX model TN1. B. Bioluminescent images of tumor growth before or 1, or 17 days after treatment. C. Primary tumor signal over time, ns. D. Tumor images after 2 weeks of treatment. E. Bioluminescent images of lungs after treatment. F. Measured signal of lungs. p=0.09. G. Timeline of treatment of mice with Erlotinib or vehicle for FIGS. 19H-L. H. Bioluminescence images of orthotopically-implanted breast tumors treated with vehicle or 50 mg/kg Erlotinib (daily orally) for 4 weeks. I. BLI signal (total flux) histograms of the lungs from vehicle and Erlotinib-treated breast tumor bearing mice as shown in H. J. Bioluminescence images of dissected lungs from tumor bearing mice treated with vehicle or Erlotinib in C. K. Fluorescence images of dissected lungs from tumor bearing mice treated with vehicle or Erlotinib in C. L. Representative mix-color tumor cell clusters in blood from tumor bearing mice treated with vehicle or Erlotinib in C.
Inhibition of EGFR successfully blocks clustering and lung colonization. Using flow cytometry, we found enriched EGFR expression in clustered cells in the blood of breast cancer patients (FIG. 25). […] Furthermore, tdTomato- and eGFP-labeled MDA-MB-231 cells were implanted orthotopically together into the mammary fat pads of mice for examination of tumor cell cluster-mediated polyclonal, spontaneous lung metastasis.
Mouse models and tumor dissociation. 8-10 weeks old NOD/SCIDmice were used for PDXs and human MDA-MB-231 cell-based xenograft studies. The triple negative PDXs and MDA-MB-231 cells were lentivirally labeled by eGFP, tdTomato, Luc2-eGFP (L2G), or Luc2-tdTomato (L2T) using the lentiviruses and labeling protocol as described previously^3. PDX tumors were harvested and dissociated either with Collagenase III (TN1 model) or Liberase TH and TM research grade (TN2 model and lung tissues). Briefly, tumors were minced and incubated for 2-4 h at 37° C. with Collagenase III (Wortington Biomedical) or Liberase TH and TM (Roche) and 100 Kunitz U of DNase I (Sigma) in 20 mL of RPMI medium with 20 mM Hepes buffer. Single-cell suspensions were filtered through 40-μm nylon cell strainers and washed with Hanks' balanced saline solution (HBSS; Sigma) containing 2% heat-inactivated fetal bovine serum (FBS). Red blood cells were lysed with ACK lysis buffer, and dissociated bulk tumor cells were either cultured or stained with various antibodies in HBSS/2% FBS for further flow analysis or sorting on a BD FacsAria (BD Biosciences). […]
Bioluminescence imaging. […] Signals are presented as total photon flux and analyzed using Living Image 3.0 software (Caliper Life Sciences).

[4] = system: TN1 PDX tumor cells; test: ex vivo aggregation (clustering) assay of dissociated PDX tumor cells, IncuCyte time-lapse imaging; type: cell-based, human
Description: Cell clustering assay. Freshly dissociated primary tumor cells in single cell suspension were seeded in collagen type I-coated 96-well plates. The plates were put into the IncuCyte live cell imaging system (Essen BioScience), and live images were taken every 2-4 h for up to one week. The cluster number and size were analyzed by Incucyte ZOOM software (Essen BioScience). In specific experiments, primary tumor cells might be sorted based on the expression of CD44 prior to seeding. In other experiments, seeded tumor cells might be transfected with siRNAs (100 nM) or treated with various inhibitors during the clustering assays. For cell viability analysis during clustering, the IncuCyte Cytotox Red reagent (Essen BioScience) was added to the medium according to the manufacturer's instructions.

[5] = Erlotinib 50 mg/kg daily orally for 4 weeks

Cc1cc(=O)oc2cc(O)ccc12 [4-MU, 4-methylumbelliferone]
aggregation of MDA-MB-231 cells in suspension [1]: did not significantly alter the aggregation

OC[C@H]1O[C@@](CO)(O[C@H]2O[C@H](CO)[C@@H](O)[C@H](O)[C@H]2O)[C@@H](O)[C@@H]1O [sucrose]
p-EGFR levels reduced by CD44 knockdown [2]: rescued

C#Cc1cccc(Nc2ncnc3cc(OCCOC)c(OCCOC)cc23)c1 [Erlotinib]
primary tumor formation [3, 5]: no effects on primary tumor formation | spontaneous lung metastasis [3, 5]: significantly and dramatically reduced the spontaneous lung metastasis | CTC clusters in dual colors in the blood ([3]; Erlotinib vs vehicle): only detectable in the blood collected from the vehicle-treated mice | dual color metastasis colonies in the lungs ([3]; Erlotinib vs vehicle): absent but with reduced single-colored colonies | PDX-derived tumor cell cluster formation, counts and size ([4]; incubation with Erlotinib (1-10 μM), 72 hours): dramatically reduced PDX-derived tumor cell cluster formation, both the counts and size

CC(C)C[C@@H](C=O)NC(=O)[C@H](CC(C)C)NC(=O)[C@H](CC(C)C)NC(=O)OCc1ccccc1 [MG-132] (Cbz-Leu-Leu-Leu-aldehyde)
p-EGFR levels reduced by CD44 knockdown [2]: rescued

CCn1c(=O)c(-c2ccc(-c3cncs3)cc2Cl)cc2cnc(Nc3ccc(N4CCN(C)CC4)cc3)nc21 [FRAX597]
ex vivo aggregation of TN1 PDX tumor cells (cluster size and number) ([4]; FRAX597 500 nM for 72 hours): partially blocked the ex vivo aggregation
